Data as given in ChEMBL document CHEMBL4406819, “Targeting the subpocket in xanthine oxidase: Design, synthesis, and biological evaluation of 2-[4-alkoxy-3-(1H-tetrazol-1-yl) phenyl]-6-oxo-1,6-dihydropyrimidine-5-carboxylic acid derivatives” (Eur J Med Chem, 2019).
The source made the active and inactive calls. No cut-off for these calls is given here.

Tests used:
[1] = test system: Rattus norvegicus; assay: Hypouricemic activity in Sprague-Dawley rat model of potassium oxonate-induced acute hyperuricemia assessed as decrease in serum uric acid level at 10 mg/kg, ig administered 1 hr before potassium oxonate challenge and measured after 3 hrs
[2] = test system: Rattus norvegicus; assay: Hypouricemic activity in Sprague-Dawley rat model of potassium oxonate-induced acute hyperuricemia assessed as decrease in serum uric acid level at 5 mg/kg, ig administered 1 hr before potassium oxonate challenge and measured after 3 hrs

| Compound | Activity [1] | Activity [2] |
| --- | --- | --- |
| Oc1ncnc2[nH]ncc12 | Active |  |
| Cc1nc(-c2ccc(OCC(C)C)c(C#N)c2)sc1C(=O)O |  | Active |
